The record followed here is ChEMBL document CHEMBL1212896, “Discovery of novel cyanodihydropyridines as potent mineralocorticoid receptor antagonists” (J Med Chem, 2010).

The structures appear in SMILES notation. pIC50: −log10 of the molar value. ≈ marks a conversion by molar mass, not a printed value. Bounds are passed on as bounds.

One data set has as its target T1, Glucocorticoid receptor (Homo sapiens, UniProt P04150).
T1 sequence (P04150 whole entry): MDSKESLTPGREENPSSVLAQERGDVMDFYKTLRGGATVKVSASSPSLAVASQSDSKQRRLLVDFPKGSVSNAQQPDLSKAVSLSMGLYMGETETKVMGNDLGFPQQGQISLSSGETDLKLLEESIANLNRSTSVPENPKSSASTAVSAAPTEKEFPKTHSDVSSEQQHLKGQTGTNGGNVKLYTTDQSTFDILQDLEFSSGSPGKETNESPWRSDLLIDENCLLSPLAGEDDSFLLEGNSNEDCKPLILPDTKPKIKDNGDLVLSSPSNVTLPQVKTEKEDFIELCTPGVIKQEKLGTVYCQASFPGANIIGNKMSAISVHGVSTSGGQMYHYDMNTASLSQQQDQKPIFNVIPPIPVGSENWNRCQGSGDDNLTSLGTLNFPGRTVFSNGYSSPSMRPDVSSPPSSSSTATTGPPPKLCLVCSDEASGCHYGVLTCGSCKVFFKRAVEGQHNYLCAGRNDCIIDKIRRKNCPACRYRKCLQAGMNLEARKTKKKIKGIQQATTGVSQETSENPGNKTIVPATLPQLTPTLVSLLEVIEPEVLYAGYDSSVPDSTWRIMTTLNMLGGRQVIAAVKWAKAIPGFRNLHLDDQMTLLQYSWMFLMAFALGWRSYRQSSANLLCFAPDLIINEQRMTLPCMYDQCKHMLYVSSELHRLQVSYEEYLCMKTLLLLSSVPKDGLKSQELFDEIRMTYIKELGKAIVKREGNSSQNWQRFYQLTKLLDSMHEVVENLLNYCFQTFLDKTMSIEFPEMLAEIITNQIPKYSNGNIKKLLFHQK
As to the kind of experiment: Antagonist activity at glucocorticoid receptor LBD expressed in human HUH7 cells coexpressing GAL4 by luciferase reporter gene assay. It is filed as functional, cell-based, Huh-7. On the technique in general: Reporter assays use an easily measured gene product as a stand-in for the process of interest.

Data set [1] has as its system Liver microsomes. As to the kind of experiment: Metabolic stability in rat liver microsomes assessed as compound remaining. Note: time not given here. It is filed as ADME, Microsome. (Microsomes from liver hold many membrane-bound enzymes, among them those of drug oxidation.)
Data set [2] deals with Liver microsomes. As to the kind of experiment: Metabolic stability in human liver microsomes assessed as compound remaining. Note: time not given here. It is filed as ADME, Microsome.
Data set [3] in a line: Solubility of the compound. It is filed as physicochemical.
A further data set concerns the target T2, Progesterone receptor (Homo sapiens, UniProt P06401).
T2 sequence (P06401 whole entry): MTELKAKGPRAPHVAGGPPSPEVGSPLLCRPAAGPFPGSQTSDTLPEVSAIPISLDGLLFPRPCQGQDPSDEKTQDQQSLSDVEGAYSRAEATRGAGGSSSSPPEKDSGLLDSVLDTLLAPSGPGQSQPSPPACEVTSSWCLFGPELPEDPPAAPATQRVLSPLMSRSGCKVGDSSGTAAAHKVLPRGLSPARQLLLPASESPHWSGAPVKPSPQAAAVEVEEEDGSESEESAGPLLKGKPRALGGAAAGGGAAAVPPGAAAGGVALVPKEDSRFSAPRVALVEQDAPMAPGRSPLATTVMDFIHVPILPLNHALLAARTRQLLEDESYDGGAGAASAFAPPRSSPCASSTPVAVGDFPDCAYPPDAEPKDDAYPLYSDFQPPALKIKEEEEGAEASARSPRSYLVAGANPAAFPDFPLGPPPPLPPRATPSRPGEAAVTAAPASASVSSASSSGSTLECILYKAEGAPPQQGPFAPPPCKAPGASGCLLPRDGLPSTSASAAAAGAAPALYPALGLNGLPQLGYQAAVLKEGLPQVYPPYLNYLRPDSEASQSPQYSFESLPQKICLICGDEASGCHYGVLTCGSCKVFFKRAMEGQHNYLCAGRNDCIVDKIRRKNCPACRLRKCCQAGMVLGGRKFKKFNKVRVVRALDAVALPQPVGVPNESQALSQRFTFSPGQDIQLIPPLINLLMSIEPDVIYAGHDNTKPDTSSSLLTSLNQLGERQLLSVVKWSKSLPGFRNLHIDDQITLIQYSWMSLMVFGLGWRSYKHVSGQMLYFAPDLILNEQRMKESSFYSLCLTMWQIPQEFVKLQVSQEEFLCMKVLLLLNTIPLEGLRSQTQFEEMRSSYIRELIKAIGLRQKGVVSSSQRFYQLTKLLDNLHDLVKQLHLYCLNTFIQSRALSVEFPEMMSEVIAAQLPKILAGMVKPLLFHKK
The data set is described as follows: Antagonist activity at progesterone receptor LBD expressed in human HUH7 cells coexpressing GAL4 by luciferase reporter gene assay. It counts as functional, cell-based, Huh-7.

Data set [4] addresses T3, Mineralocorticoid receptor (Homo sapiens, UniProt P08235).
T3 sequence (P08235 whole entry): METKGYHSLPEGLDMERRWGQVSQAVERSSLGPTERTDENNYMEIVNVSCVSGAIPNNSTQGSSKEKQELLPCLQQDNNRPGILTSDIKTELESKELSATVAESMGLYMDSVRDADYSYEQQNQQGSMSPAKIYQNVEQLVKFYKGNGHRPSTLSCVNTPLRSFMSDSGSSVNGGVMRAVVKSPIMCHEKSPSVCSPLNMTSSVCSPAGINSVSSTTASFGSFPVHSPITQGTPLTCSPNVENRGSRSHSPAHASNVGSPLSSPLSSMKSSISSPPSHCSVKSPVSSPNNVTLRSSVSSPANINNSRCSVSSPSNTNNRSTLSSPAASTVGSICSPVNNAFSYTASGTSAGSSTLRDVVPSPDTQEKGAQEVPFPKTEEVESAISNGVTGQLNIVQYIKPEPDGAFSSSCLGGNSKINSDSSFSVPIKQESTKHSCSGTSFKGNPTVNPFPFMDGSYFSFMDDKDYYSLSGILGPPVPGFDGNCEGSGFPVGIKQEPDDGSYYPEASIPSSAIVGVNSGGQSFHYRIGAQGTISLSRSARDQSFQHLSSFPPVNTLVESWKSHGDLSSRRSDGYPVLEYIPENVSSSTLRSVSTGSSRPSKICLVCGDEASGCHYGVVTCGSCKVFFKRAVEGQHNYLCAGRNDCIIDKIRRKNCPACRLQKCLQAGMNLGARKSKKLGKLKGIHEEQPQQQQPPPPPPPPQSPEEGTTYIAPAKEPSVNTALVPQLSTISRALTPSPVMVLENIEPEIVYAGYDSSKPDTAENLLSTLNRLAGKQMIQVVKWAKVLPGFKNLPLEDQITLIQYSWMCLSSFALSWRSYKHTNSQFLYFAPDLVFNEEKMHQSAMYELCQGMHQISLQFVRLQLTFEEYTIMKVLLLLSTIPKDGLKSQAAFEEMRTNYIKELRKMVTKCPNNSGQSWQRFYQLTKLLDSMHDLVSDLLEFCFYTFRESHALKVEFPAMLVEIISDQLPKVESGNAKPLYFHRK
Description: Antagonist activity at mineralocorticoid receptor LBD expressed in human HUH7 cells coexpressing GAL4 by luciferase reporter gene assay

Regarding `CCCC1=C(C(=O)OC)C(c2ccccc2Cl)C(C#N)=C(C)N1` (stereo not given), the negative-log IC50 (pIC50) against Glucocorticoid receptor was 5.80; on Progesterone receptor, 6.70; in data set [4] it was 7.19. Also, the Stability in the data set with Liver microsomes [1] is 13%; in the data set on Liver microsomes [2], 36%. The compound also returned a solubility in data set [3] of under 5 µM.
Take `COC(=O)C1=C(C)NC(C)=C(C#N)C1c1ccc(F)cc1Cl` (stereo not given): the negative-log IC50 (pIC50) against Glucocorticoid receptor was 5.29; on Progesterone receptor, 6.05; in data set [4] it was 7.04. Further, the Stability came to 14% with Liver microsomes [1] and 37% in the data set with Liver microsomes [2]. Besides, the concentration in solution in data set [3] (solubility) came to 10 µM (≈ 3.21 µg/mL).
Regarding `COC(=O)C1=C(Cn2cncn2)NC(C)=C(C#N)C1c1ccc(F)cc1Cl` (stereo not given), the pIC50 against Glucocorticoid receptor was 5.54; against Progesterone receptor, 5.15; in data set [4], 6.91. For the same compound, the results for the Stability with Liver microsomes [1] and in the data set on Liver microsomes [2] were 34% and 9%, respectively. In addition, in data set [3], the solubility was over 5 µM.
With `COC(=O)C1=C(Cn2cnnn2)NC(C)=C(C#N)C1c1ccc(F)cc1Cl` (stereo not given), the pIC50 was 5.89 at Glucocorticoid receptor, under 5.00 on Progesterone receptor and 7.19 in data set [4]. Further, the figures for the Stability in the data set on Liver microsomes [1] and in the data set on Liver microsomes [2] were 60% and 3%, respectively. Besides, the solubility in data set [3] stood at 31 µM (≈ 12.1 µg/mL).
In the case of `COC(=O)C1=C(Cn2ccnc2)NC(C)=C(C#N)C1c1ccc(F)cc1Cl` (stereo not given), the pIC50 against Glucocorticoid receptor is 5.66; against Progesterone receptor, under 5.00; in data set [4], 8.05. For the same compound, the Stability came to 64% in the data set with Liver microsomes [1] and 8% in the data set with Liver microsomes [2]. This compound also displayed a solubility in data set [3] of 5 µM (≈ 1.93 µg/mL).

A word on the pIC50: it is the IC50 on a negative log10 scale, so that one unit is a factor of ten. A higher pIC50 goes with a small IC50. The term solubility denotes how much of the substance goes into solution per volume. Higher therefore signals a readily soluble substance.
